Experimental data: PubChem BioAssay AID504556 (Southern Research Specialized Biocontainment Screening …, 2011)
The source made the active and inactive calls. No rule for the calls is given here. Residues, ends and D or L forms follow the SMILES beside them. *: point of attachment. Cbz = O=C(OCc1ccccc1)*

Tests used:
[1] = system: Mycobacterium tuberculosis H37Rv growth in 7H9 medium; test: growth inhibition of Mycobacterium tuberculosis, dose response, 7H9 medium, purified and synthesized compounds, set 2 (AID 504556); conditions: for IC90: measured here: M. tuberculosis growth IC90
[2] = as above; conditions: Mycobacterium tuberculosis H37Rv growth in 7H9 medium; at 25 µM (top of the series)

SMILES | IC50 [1] | IC90 [1] | growth inhibition [2]
Cc1ccc2ccc3ccc(C)nc3c2n1 | 50 nM | 230 nM | 
Cc1cccc(-c2oc3ccc(-c4ccc5c(c4)OCO5)cc3c2C#Cc2cncn2C)c1 | 2360 nM | 3220 nM | 
COC(=O)CCc1nc2c(C#N)c(-c3ccc(Cl)cc3)ccn2n1 | 1110 nM | 2460 nM | 
CCOC(=O)C(C)Sc1ncnc2c1nnn2-c1ccc(F)cc1 (stereo not given) | 70 nM | 3420 nM | 
O=C(CSc1nc2ccccc2c(=O)[nH]1)NC1CCCCC1 | < 10 nM | < 10 nM | 
COc1cc(NC(=O)C/C(C)=N/NC(=O)c2ccccn2)c(OC)cc1Cl | 990 nM | 3040 nM | 
Cc1cccc(/C=C/C(=O)c2ccc([N+](=O)[O-])o2)c1 | < 10 nM | < 10 nM | 
O=C1C(Br)=Cc2cccc3cccc1c23 | 20 nM | 1080 nM | 
CCOC(=O)c1ccc(NC(=O)Cn2ncc(Cl)c(Cl)c2=O)cc1 | 70 nM | 480 nM | 
CCOC(=O)COn1c2c(c3c4no[n+]([O-])c4ccc31)CCCC2 | 1730 nM | 3680 nM | 
CCOC(=O)COc1ccc(/C=C2\NC(=S)N(CC)C2=O)cc1 | 820 nM | 6190 nM | 
Cc1ccc2c(c1)c(C1=c3ccccc3=NC1=O)c(O)n2C | 250 nM | 1720 nM | 
S=c1nc[nH]c2nc[nH]c12 | 950 nM | 1570 nM | 
Nc1c(C(=O)NC2CCCCC2)nsc1C(=O)OCC(=O)NC1CCCCC1 | 380 nM | 2090 nM | 
CCC(C)Nc1ccc(NC(C)CC)cc1 (stereo not given) | 320 nM | 590 nM | 
O=C(/C=C\c1cccs1)N1CCN(Cc2ccc3c(c2)OCO3)CC1 | 330 nM | 1970 nM | 
COC(=O)c1ccc(CNc2c(N3CCCC3)c(=O)c2=O)cc1 |  |  | 0.86% (inactive)
Cc1ccc(C(=O)N/N=C(/CC(=O)c2cccs2)C(F)(F)F)cc1 | 540 nM | 1050 nM | 
COC(=O)C1CC(=O)N(c2ccc(OCc3ccccc3Cl)cc2)C1 (stereo not given) | 220 nM | 3840 nM | 
Oc1ccccc1/C=N/Nc1ccnc(SCc2ccccc2)n1 |  |  | 19.3% (inactive)

SMILES | IC50 [1] | IC90 [1] | growth inhibition [2]
CC(=NCc1ccc2c(c1)OCO2)C1=C(O)c2ccccc2C1=O | 400 nM | 6040 nM | 
Cc1nn2c(NCc3ccccn3)cc(C(C)C)nc2c1-c1ccccc1 | 510 nM | 820 nM | 
COC(=O)C(Nc1nc(SCC(=O)NC2CCCCC2)nc2ccccc12)c1ccccc1 (stereo not given) |  |  | 2.12% (inactive)
COC(=O)c1cc(=O)n(-c2ccc(F)cc2)c(=Nc2ccc(F)cc2)s1 | 150 nM | 1460 nM | 
CC[N+](C)(CC)CCCCOc1ccc2c(c1)C(=O)c1cc(OCCCC[N+](C)(CC)CC)ccc1-2 | 770 nM | 1220 nM | 
CCc1ccc(/C=C2/C(=O)N(C)C(=S)N2CC(=O)OC)s1 | 190 nM | 3110 nM | 
CC1CCN(C(=O)C2CCN(c3nnc(-n4cccc4)s3)CC2)CC1 | 890 nM | 2230 nM | 
Cc1cc(Br)ccc1NC(=O)c1cnc(N2CCN(c3ccccn3)CC2)c2ccccc12 | 180 nM | 1470 nM | 
Cc1ccc(NC(=O)C2C3/C=C\CCCCC32)cc1C (stereo not given) | 1490 nM | 4010 nM | 
O=C(CSc1nc2ccccc2c(=O)[nH]1)NCc1ccc(Cl)cc1 | 160 nM | 720 nM | 
O=C(/C=C/c1ccccc1)N1CCN(CCN2C(=O)c3cccc4cccc(c34)C2=O)CC1 | 1290 nM | 3470 nM | 
CC(C)NC(=O)c1sc(=S)n2c1[nH]c(=O)c1ccc(C(=O)NCCc3ccc(Cl)cc3)cc12 | 80 nM | 230 nM | 
CCOC1OC(=O)C(Cl)=C1Nc1ccccc1C (stereo not given) | 2020 nM | 9040 nM | 
c1ccc(/N=C2\N=C(Nc3ccccn3)c3ccccc32)nc1 | < 10 nM | < 10 nM | 
COC(=O)C(C)Oc1ccc(-c2nccc(-c3ccccn3)n2)cc1 (stereo not given) | 1170 nM | 2590 nM | 
CNc1nc(SCc2ccccc2Cl)nc2c1CCCC2 | 680 nM | 1910 nM | 
O=C(NCC(c1cccs1)N1CCOCC1)c1cc([N+](=O)[O-])cc([N+](=O)[O-])c1 (stereo not given) | 90 nM | 190 nM | 
CCOC(=O)CNC(=O)[C@H](Cc1ccccc1)NC(=O)OCc1ccccc1 (Cbz-Phe-Gly-OEt) | 610 nM | 1220 nM | 
Cc1nc(SCC(=O)NC2CCCCC2)[nH]c(=O)c1C | 40 nM | 1030 nM | 
